pIC50: −log10 of the molar value.
Key:
[1] = molecular target: T1, Alpha-2A adrenergic receptor (Homo sapiens, UniProt P08913); format: cell membranes, Sf9, Membrane; conditions: sf9; note: in other assays of this panel Not Active means under 50% inhibition at 10 µM
T1 sequence (P08913 whole entry): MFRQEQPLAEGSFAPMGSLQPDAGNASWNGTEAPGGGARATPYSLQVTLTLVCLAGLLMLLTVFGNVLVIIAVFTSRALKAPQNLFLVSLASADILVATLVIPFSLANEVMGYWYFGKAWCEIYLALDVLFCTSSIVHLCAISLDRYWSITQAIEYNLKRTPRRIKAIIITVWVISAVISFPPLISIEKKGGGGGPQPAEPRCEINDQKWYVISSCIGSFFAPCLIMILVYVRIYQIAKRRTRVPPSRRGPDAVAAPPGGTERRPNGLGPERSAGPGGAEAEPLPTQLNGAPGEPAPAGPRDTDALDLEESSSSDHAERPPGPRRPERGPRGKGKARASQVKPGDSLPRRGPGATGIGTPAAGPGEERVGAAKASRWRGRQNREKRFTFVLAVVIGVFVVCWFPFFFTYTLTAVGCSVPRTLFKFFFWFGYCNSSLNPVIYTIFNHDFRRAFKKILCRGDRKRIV

[2] = molecular target: Carbonic anhydrase 2 (Homo sapiens, UniProt P00918); test: DRUGMATRIX: Carbonic Anhydrase II enzyme inhibition (substrate: 4-Nitrophenyl acetate (4-NPA)); format: tissue-based, Erythrocyte; conditions: erythrocyte; Not Active = under 50% inhibition at 10 µM
[3] = molecular target: T2, Cholecystokinin receptor type A (Homo sapiens, UniProt P32238); format: cell membranes, Membrane; conditions: 1321-n1; note: in other assays of this panel Not Active means under 50% inhibition at 10 µM
T2 sequence (P32238 whole entry): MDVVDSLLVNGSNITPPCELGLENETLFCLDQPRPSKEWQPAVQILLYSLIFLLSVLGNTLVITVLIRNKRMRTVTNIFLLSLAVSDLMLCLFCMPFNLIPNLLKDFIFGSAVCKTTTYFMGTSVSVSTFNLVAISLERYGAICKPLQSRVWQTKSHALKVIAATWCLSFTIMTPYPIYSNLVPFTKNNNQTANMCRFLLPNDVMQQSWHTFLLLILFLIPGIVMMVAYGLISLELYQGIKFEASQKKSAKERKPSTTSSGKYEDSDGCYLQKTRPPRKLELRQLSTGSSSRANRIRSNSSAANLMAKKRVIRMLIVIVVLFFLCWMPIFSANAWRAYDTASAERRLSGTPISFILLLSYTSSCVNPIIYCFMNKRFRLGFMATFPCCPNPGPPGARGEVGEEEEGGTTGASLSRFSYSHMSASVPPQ

[4] = molecular target: D(1A) dopamine receptor (Homo sapiens, UniProt P21728); test: DRUGMATRIX: Dopamine D1 radioligand binding (ligand: [3H] SCH-23390); format: cell membranes, CHO, Membrane; conditions: cho; Not Active = under 50% inhibition at 10 µM
[5] = DRUGMATRIX: Glutamate, NMDA, Phencyclidine radioligand binding (ligand: [3H] TCP); format: cell membranes, Rattus norvegicus, Wistar, Cerebral cortex, Membrane; conditions: Not Active = under 50% inhibition at 10 µM
[6] = DRUGMATRIX: Interleukin IL-1 radioligand binding (ligand: [125I] interleukin 1beta); format: cell membranes, Membrane; conditions: nih3t3; Not Active = under 50% inhibition at 10 µM
[7] = molecular target: T3, Cysteinyl leukotriene receptor 1 (Homo sapiens, UniProt Q9Y271); format: cell membranes, CHO-K1, Membrane; conditions: cho-k1; note: in other assays of this panel Not Active means under 50% inhibition at 10 µM
T3 sequence (Q9Y271 whole entry): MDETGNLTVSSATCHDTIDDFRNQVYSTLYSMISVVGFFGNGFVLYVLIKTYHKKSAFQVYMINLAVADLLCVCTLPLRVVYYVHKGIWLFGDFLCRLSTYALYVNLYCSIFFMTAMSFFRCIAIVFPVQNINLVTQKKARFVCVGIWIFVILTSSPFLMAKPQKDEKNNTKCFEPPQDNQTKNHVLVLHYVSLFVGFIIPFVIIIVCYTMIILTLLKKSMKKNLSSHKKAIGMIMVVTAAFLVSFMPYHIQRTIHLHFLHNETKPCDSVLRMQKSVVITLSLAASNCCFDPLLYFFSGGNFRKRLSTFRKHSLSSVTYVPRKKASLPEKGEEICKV

[8] = molecular target: T4, Amine oxidase [flavin-containing] A (Homo sapiens, UniProt P21397); test: DRUGMATRIX: Monoamine Oxidase MAO-A enzyme inhibition (substrate: Kynuramine); design: species or system BTI-TN-5B1-4; conditions: bti-tn-5b1-4; Not Active = under 50% inhibition at 10 µM
T4 sequence (P21397 whole entry): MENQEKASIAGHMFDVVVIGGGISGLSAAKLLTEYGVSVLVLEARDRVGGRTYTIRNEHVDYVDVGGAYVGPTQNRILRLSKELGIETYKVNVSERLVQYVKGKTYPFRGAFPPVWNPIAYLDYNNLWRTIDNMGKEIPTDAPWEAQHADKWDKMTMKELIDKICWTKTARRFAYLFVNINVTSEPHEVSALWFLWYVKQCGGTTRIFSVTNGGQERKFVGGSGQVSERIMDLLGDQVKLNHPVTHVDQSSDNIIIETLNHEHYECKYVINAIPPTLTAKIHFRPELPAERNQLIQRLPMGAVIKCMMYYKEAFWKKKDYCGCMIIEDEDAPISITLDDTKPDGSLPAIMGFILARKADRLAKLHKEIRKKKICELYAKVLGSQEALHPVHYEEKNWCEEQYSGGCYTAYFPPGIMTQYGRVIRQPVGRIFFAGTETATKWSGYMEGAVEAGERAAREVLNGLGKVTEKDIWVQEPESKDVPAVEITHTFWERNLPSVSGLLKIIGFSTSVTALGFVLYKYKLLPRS

[9] = DRUGMATRIX: Phorbol Ester radioligand binding (ligand: [3H] PDBu); format: cell membranes, Mus musculus, ICR, Brain, Membrane; conditions: Not Active = under 50% inhibition at 10 µM
[10] = DRUGMATRIX: Phosphodiesterase PDE3 enzyme inhibition (substrate: [3H]cAMP + cAMP); format: tissue-based, Homo sapiens; conditions: platelet, Not Active = under 50% inhibition at 10 µM
[11] = DRUGMATRIX: Platelet-Derived Growth Factor (PDGF) radioligand binding (ligand: [125I] PDGF); format: cell-based; conditions: nih3t3; Not Active = under 50% inhibition at 10 µM
[12] = molecular target: T5, Neutrophil elastase (Homo sapiens, UniProt P08246); format: tissue-based;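 note: inhibition of neutrophil elastase enzyme activity, measured with a p-nitroanilide-linked peptide substrate; in other assays of this panel Not Active means under 50% inhibition at 10 µM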
T5 sequence (P08246 whole entry): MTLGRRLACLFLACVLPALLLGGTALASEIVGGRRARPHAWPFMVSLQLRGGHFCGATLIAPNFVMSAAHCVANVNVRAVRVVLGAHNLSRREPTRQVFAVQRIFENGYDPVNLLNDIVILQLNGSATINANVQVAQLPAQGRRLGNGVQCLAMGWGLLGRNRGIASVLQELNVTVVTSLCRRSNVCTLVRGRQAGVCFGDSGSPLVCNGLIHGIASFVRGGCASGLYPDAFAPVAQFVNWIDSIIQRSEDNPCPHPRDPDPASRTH

[13] = DRUGMATRIX: Purinergic P2X radioligand binding (ligand: [3H] alpha, beta-Methylene-ATP); format: cell membranes, Oryctolagus cuniculus, New Zealand albino, Urinary bladder, Membrane; conditions: Not Active = under 50% inhibition at 10 µM
[14] = molecular target: Estrogen receptor beta (Homo sapiens, UniProt Q92731); conditions: sf9; note: in other assays of this panel Not Active means under 50% inhibition at 10 µM
Chain of Estrogen receptor beta (Q92731 whole entry): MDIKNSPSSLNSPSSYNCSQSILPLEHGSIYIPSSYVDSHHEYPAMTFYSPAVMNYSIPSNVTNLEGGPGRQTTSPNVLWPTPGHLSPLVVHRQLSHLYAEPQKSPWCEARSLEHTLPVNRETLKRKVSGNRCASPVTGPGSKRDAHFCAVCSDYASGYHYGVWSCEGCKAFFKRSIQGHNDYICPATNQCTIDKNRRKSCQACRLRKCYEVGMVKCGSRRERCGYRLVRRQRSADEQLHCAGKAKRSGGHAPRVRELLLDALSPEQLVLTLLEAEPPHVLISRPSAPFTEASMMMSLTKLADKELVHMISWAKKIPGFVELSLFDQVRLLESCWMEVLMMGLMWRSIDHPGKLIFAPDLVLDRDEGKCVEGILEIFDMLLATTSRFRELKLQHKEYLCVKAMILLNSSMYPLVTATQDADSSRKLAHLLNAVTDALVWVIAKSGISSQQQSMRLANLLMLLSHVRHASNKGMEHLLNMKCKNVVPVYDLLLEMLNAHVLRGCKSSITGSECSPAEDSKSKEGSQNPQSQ

Chain of D(1A) dopamine receptor (P21728 whole entry): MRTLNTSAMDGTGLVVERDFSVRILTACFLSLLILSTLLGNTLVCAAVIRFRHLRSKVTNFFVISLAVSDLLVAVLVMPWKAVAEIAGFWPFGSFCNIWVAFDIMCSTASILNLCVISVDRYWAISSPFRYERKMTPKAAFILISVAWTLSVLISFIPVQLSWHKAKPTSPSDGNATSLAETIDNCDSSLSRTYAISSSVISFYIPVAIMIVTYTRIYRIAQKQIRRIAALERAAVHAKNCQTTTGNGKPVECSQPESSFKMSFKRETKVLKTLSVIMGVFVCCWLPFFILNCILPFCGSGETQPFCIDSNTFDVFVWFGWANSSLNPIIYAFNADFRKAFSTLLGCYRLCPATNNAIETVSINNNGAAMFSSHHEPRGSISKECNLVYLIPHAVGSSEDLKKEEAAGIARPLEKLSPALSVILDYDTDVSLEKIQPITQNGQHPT

| Compound | IC50 [1] | IC50 [2] | IC50 [3] | IC50 [4] | IC50 [5] | Ki [5] | IC50 [6] | Ki [6] | IC50 [7] | IC50 [8] | IC50 [9] | Ki [9] | IC50 [10] | Ki [10] | IC50 [11] | Ki [11] | IC50 [12] | IC50 [13] | Ki [13] | IC50 [14] | further results |
| --- | --- | --- | --- | --- | --- | --- | --- | --- | --- | --- | --- | --- | --- | --- | --- | --- | --- | --- | --- | --- | --- |
| CC(=O)CCCCn1c(=O)c2c(ncn2C)n(C)c1=O [PENTOXIFYLLINE] | Not Active | Not Active | Not Active | Not Active | Not Active | Not Active | Not Active | Not Active | Not Active | Not Active | Not Active | Not Active | Not Active | Not Active | Not Active | Not Active | Not Active | Not Active | Not Active | Not Active | – |
| C=C(C)[C@@H]1[C@H]2OC(=O)[C@@H]1[C@]1(O)C[C@H]3O[C@]34C(=O)O[C@H]2[C@]14C [PICROTOXININ] | Not Active | Not Active | Not Active | Not Active | Not Active | Not Active | Not Active | Not Active | Not Active | Not Active | Not Active | Not Active | Not Active | Not Active | Not Active | Not Active | Not Active | Not Active | Not Active | Not Active | – |
| CCC1(c2ccccc2)C(=O)NCNC1=O [PRIMIDONE] | Not Active | Not Active | Not Active | Not Active | Not Active | Not Active | Not Active | Not Active | Not Active | Not Active | Not Active | Not Active | Not Active | Not Active | Not Active | Not Active | Not Active | Not Active | Not Active | Not Active | – |
| CARBOPLATIN | Not Active | Not Active | Not Active | Not Active | Not Active | Not Active | Not Active | Not Active | Not Active | Not Active | Not Active | Not Active | Not Active | Not Active | Not Active | Not Active | Not Active | Not Active | Not Active | Not Active | Ki [1]: Not Active; Ki [2]: Not Active; Ki [3]: Not Active; Ki [4]: Not Active; Ki [7]: Not Active; Ki [8]: Not Active; Ki [12]: Not Active; Ki [14]: Not Active |
| CISPLATIN | Not Active | Not Active | Not Active | Not Active | Not Active | Not Active | Not Active | Not Active | Not Active | Not Active | Not Active | Not Active | – | – | Not Active | Not Active | Not Active | Not Active | Not Active | Not Active | Ki [1]: Not Active; Ki [2]: Not Active; Ki [3]: Not Active; Ki [4]: Not Active; Ki [7]: Not Active; Ki [8]: Not Active; pIC50 ([10]; read-out: IC50): 4.33; Ki [12]: Not Active; Ki [14]: Not Active |
| GOLD SODIUM THIOMALATE | Not Active | Not Active | Not Active | Not Active | Not Active | Not Active | Not Active | Not Active | Not Active | Not Active | Not Active | Not Active | Not Active | Not Active | Not Active | Not Active | Not Active | Not Active | Not Active | Not Active | Ki [1]: Not Active; Ki [2]: Not Active; Ki [3]: Not Active; Ki [4]: Not Active; Ki [7]: Not Active; Ki [8]: Not Active; Ki [12]: Not Active; Ki [14]: Not Active |

Reference: ChEMBL document CHEMBL1909046, “DrugMatrix in vitro pharmacology data”
